Source: patent US20080026417A1, “ASSAYS FOR TRICHOMONAL AND OTHER HYDROLASES” (priority 2002, published 2008)
Peptide text beside a SMILES is read from it. * marks the point of attachment. NH(4-MeO-2-naphthyl) = COc1cc(N*)cc2ccccc12; βNA = c1ccc2cc(N*)ccc2c1; Cbz = O=C(OCc1ccccc1)*; Bz = O=C(c1ccccc1)*

Experiments:
trichomonal hydrolases [1] = assay: Experiment 13: hydrolysis of peptide substrates by trichomonal hydrolases at low pH, no vaginal fluid; assay type: biochemical, Trichomonas vaginalis; design: key: −: No red color produced; +: Clearly visible red color produced; ++: Moderately intense red color produced; +++: Very intense red color produced; conditions: without vaginal fluid; threonine buffer pH 2.4; 2 mM substrate solution; 10 min 25° C.; Fast Garnet
Procedure: Forty μL of each substrate was pipetted into duplicate wells of a microtiter plate. The plate was covered with tape, placed into a 25° C. incubator, and allowed to warm. A diluted enzyme mixture was prepared by mixing one part (v/v) freshly-thawed trichomonal hydrolase solution to nine parts 2 mM L-cysteine solution. Forty μL of this mixture was added to one well of each pair of duplicate wells. For negative controls, 40 μL of 2 mM L-cysteine was added to the second well in each pair of duplicate wells. The plate was returned to the incubator and incubated for ten minutes. Forty μL of SDS/acetate solution was added to each well, followed by 40 μL of Fast Garnet solution. The intensity of color that developed in each well after five minutes was visually scored using the color scale presented in Table 13.1.

trichomonal hydrolases [2] = assay: Experiment 12: hydrolysis of ZRRR-MNA by trichomonal hydrolases in four buffers; assay type: biochemical, Trichomonas vaginalis; conditions: for Score: substrate ZRRR-MNA, Fast Red RL, 0-9 scale
Procedure: Fifty μL of each buffer solution, at pH 2.0, 2.2, 2.4, or 2.6, was pipetted into separate wells of a microtiter plate. Twenty-five μL of 8 mM ZRRR-MNA and 25 μL of 10% trichomonal hydrolase solution were added to each well, and 20 μL were then removed from each well for measurement of final pH. Ten minutes after the mixtures were made, a Dacron swab was inserted into each well to absorb the liquid, then each swab was rubbed on a Fast Red RL film. The intensity of pink color that developed on each swab after five minutes was visually scored in 0.5 unit increments using the 0-9 color scale presented in Table 11.1 of the preceding example.

[3] = pH 2.0 Buffer after mixing with substrate and trichomonal hydrolase solution
[4] = pH 2.2 Buffer after mixing with substrate and trichomonal hydrolase solution
[5] = pH 2.4 Buffer after mixing with substrate and trichomonal hydrolase solution
[6] = pH 2.6 Buffer after mixing with substrate and trichomonal hydrolase solution

| Compound | Color Score (trichomonal hydrolases [1]) | further results |
| --- | --- | --- |
| NC(N)=NCCCC(NC(=O)c1ccccc1)C(=O)Nc1ccc2ccccc2c1 (racemic) [BZ-DL-Arg-βNA] | − |  |
| O=C(O)CC(O)C(=O)O (racemic) [DL-malic acid] |  | Score (trichomonal hydrolases [2]; pH 2.0 Buffer (100 mM)): 4.5; Final pH (trichomonal hydrolases [2]; [3]): pH 2.4; Score (trichomonal hydrolases [2]; pH 2.2 Buffer (100 mM)): 5.5; Final pH (trichomonal hydrolases [2]; [4]): pH 2.7; Score (trichomonal hydrolases [2]; pH 2.4 Buffer (100 mM)): 6.0; Final pH (trichomonal hydrolases [2]; [5]): pH 2.8; Score (trichomonal hydrolases [2]; pH 2.6 Buffer (100 mM)): 6.0; Final pH (trichomonal hydrolases [2]; [6]): pH 2.9 |
| C[C@H](N)C(=O)N[C@@H](C)C(=O)Nc1ccc2ccccc2c1 [Ala-Ala-βNA] (H-Ala-Ala-βNA) | − |  |
| C[C@H](N)C(=O)Nc1ccc2ccccc2c1 [Ala-βNA] | − |  |
| N=C(N)NCCC[C@H](NC(=O)[C@@H](N)CCCNC(=N)N)C(=O)Nc1ccc2ccccc2c1 [Arg-Arg-βNA] (H-Arg-Arg-βNA) | − |  |
| COc1cc(NC(=O)[C@@H](N)CCCN=C(N)N)cc2ccccc12 [Arg-MNA] | − |  |
| NC(N)=NCCC[C@H](N)C(=O)Nc1ccc2ccccc2c1 [Arg-βNA] | − |  |
| COc1cc(NC(=O)[C@H](C)NC(=O)[C@H](C)NC(=O)[C@H](CCC(N)=O)NC(=O)OC(C)(C)C)cc2ccccc12 [BOC-Gln-Ala-Ala-MNA] | − |  |
| COc1cc(NC(=O)C(CCCNC(=N)N)NC(=O)C(C)NC(=O)C(CCC(N)=O)NC(=O)OC(C)(C)C)cc2ccccc12 (stereo not drawn) [BOC-Gln-Ala-Arg-MNA] | − |  |
| COc1cc(NC(=O)[C@H](CCCNC(=N)N)NC(=O)c2ccccc2)cc2ccccc12 [BZ-Arg-MNA] | − |  |
| N=C(N)NCCC[C@H](NC(=O)[C@H](Cc1ccccc1)NC(=O)[C@@H]1CCCN1C(=O)c1ccccc1)C(=O)Nc1ccc2ccccc2c1 [BZ-Pro-Phe-Arg-βNA] (Bz-Pro-Phe-Arg-βNA) | − |  |
| COc1cc(NC(=O)C(CC(C)C)NC(=O)C(Cc2ccccc2)NC(=O)CNC(=O)C(CCCNC(=N)N)NC(=O)OCc2ccccc2)cc2ccccc12 (stereo not drawn) [CBZ-Arg-Gly-Phe-Leu-MNA] (Cbz-RGFL-{NH(4-MeO-2-naphthyl)}; configuration not given here) | − |  |
| COc1cc(NC(=O)C(CCCNC(=N)N)NC(=O)OCc2ccccc2)cc2ccccc12 (stereo not drawn) [CBZ-Arg-MNA] | − |  |
| COc1cc(NC(=O)[C@H](CCCNC(=N)N)NC(=O)CNC(=O)CNC(=O)OCc2ccccc2)cc2ccccc12 [CBZ-Gly-Gly-Arg-MNA] | − |  |
| CC(C)C[C@H](NC(=O)CNC(=O)CNC(=O)OCc1ccccc1)C(=O)Nc1ccc2ccccc2c1 [CBZ-Gly-Gly-Leu-βNA] (Cbz-Gly-Gly-Leu-βNA) | − |  |
| O=C(CNC(=O)OCc1ccccc1)NCC(=O)N[C@@H](Cc1ccccc1)C(=O)Nc1ccc2ccccc2c1 [CBZ-Gly-Gly-Phe-βNA] (Cbz-Gly-Gly-Phe-βNA) | − |  |
| COc1cc(NC(=O)C(CCCNC(=N)N)NC(=O)C2CCCN2C(=O)CNC(=O)OCc2ccccc2)cc2ccccc12 (stereo not drawn) [CBZ-Gly-Pro-Arg-MNA] | − |  |
| COc1cc(NC(=O)[C@H](CCCNC(=N)N)NC(=O)[C@H](CCCNC(=N)N)NC(=O)[C@H](CC(C)C)NC(=O)OCc2ccccc2)cc2ccccc12 [CBZ-Leu-Arg-Arg-MNA] | + |  |
| COc1cc(NC(=O)[C@H](CCCNC(=N)N)NC(=O)[C@H](CCCCN)NC(=O)[C@H](CCCCN)NC(=O)OCc2ccccc2)cc2ccccc12 [CBZ-Lys-Lys-Arg-MNA] | + |  |
| NCCCC[C@H](NC(=O)OCc1ccccc1)C(=O)Nc1ccc2ccccc2c1 [CBZ-Lys-βNA] | − |  |
| COc1cc(NC(=O)[C@H](CCCN=C(N)N)NC(=O)[C@H](CCCCN)NC(=O)[C@H](CCCCN)NC(=O)[C@@H](NC(=O)OCc2ccccc2)C(C)C)cc2ccccc12 [CBZ-Val-Lys-Lys-Arg-MNA] (Cbz-VKKR-{NH(4-MeO-2-naphthyl)}) | + |  |
| COc1cc(NC(=O)C(Cc2ccccc2)NC(=O)CNC(=O)C(N)CCC(N)=O)cc2ccccc12 (stereo not drawn) [Gln-Gly-Phe-MNA] | − |  |
| COc1cc(NC(=O)C(CCCN=C(N)N)NC(=O)CN)cc2ccccc12 (stereo not drawn) [Gly-Arg-MNA] | − |  |
| NCC(=O)N[C@@H](CCCN=C(N)N)C(=O)Nc1ccc2ccccc2c1 [Gly-Arg-βNA] (H-Gly-Arg-βNA) | − |  |
| NCC(=O)NCC(=O)Nc1ccc2ccccc2c1 [Gly-Gly-βNA] (H-Gly-Gly-βNA) | − |  |
| COc1cc(NC(=O)C(Cc2ccccc2)NC(=O)CN)cc2ccccc12 (stereo not drawn) [Gly-Phe-MNA] | − |  |
| NCC(=O)N[C@@H](Cc1ccccc1)C(=O)Nc1ccc2ccccc2c1 [Gly-Phe-βNA] (H-Gly-Phe-βNA) | − |  |

| Compound | Color Score (trichomonal hydrolases [1]) | further results |
| --- | --- | --- |
| COc1cc(NC(=O)[C@@H]2CCCN2C(=O)CN)cc2ccccc12 [Gly-Pro-MNA] | − |  |
| NCC(=O)N[C@@H](Cc1c[nH]c2ccccc12)C(=O)Nc1ccc2ccccc2c1 [Gly-Trp-βNA] (H-Gly-Trp-βNA) | − |  |
| NCC(=O)Nc1ccc2ccccc2c1 [Gly-βNA] | − |  |
| NCC(=O)O [Glycine] |  | Score (trichomonal hydrolases [2]; pH 2.0 Buffer (100 mM)): 5.0; Final pH (trichomonal hydrolases [2]; [3]): pH 2.4; Score (trichomonal hydrolases [2]; pH 2.2 Buffer (100 mM)): 6.0; Final pH (trichomonal hydrolases [2]; [4]): pH 2.6; Score (trichomonal hydrolases [2]; pH 2.4 Buffer (100 mM)): 6.0; Final pH (trichomonal hydrolases [2]; [5]): pH 2.7; Score (trichomonal hydrolases [2]; pH 2.6 Buffer (100 mM)): 6.0; Final pH (trichomonal hydrolases [2]; [6]): pH 2.9 |
| COc1cc(NC(=O)C(CO)NC(=O)C(N)Cc2cnc[nH]2)cc2ccccc12 (stereo not drawn) [His-Ser-MNA] | − |  |
| N[C@@H](Cc1cnc[nH]1)C(=O)Nc1ccc2ccccc2c1 [His-βNA] | − |  |
| O=C(Nc1ccc2ccccc2c1)[C@@H]1C[C@@H](O)CN1 [Hyp-βNA] | − |  |
| CC[C@H](C)[C@H](N)C(=O)Nc1ccc2ccccc2c1 [Ile-βNA] | − |  |
| NCCCC[C@H](N)C(=O)O [L-lysine] |  | Score (trichomonal hydrolases [2]; pH 2.0 Buffer (100 mM)): 3.0; Final pH (trichomonal hydrolases [2]; [3]): pH 2.3; Score (trichomonal hydrolases [2]; pH 2.2 Buffer (100 mM)): 4.5; Final pH (trichomonal hydrolases [2]; [4]): pH 2.5; Score (trichomonal hydrolases [2]; pH 2.4 Buffer (100 mM)): 5.0; Final pH (trichomonal hydrolases [2]; [5]): pH 2.9; Score (trichomonal hydrolases [2]; pH 2.6 Buffer (100 mM)): 5.5; Final pH (trichomonal hydrolases [2]; [6]): pH 3.0 |
| CC(C)C[C@H](N)C(=O)N[C@@H](C)C(=O)Nc1ccc2ccccc2c1 [Leu-Ala-βNA] (H-Leu-Ala-βNA) | − |  |
| COc1cc(NC(=O)C(N)CC(C)C)cc2ccccc12.Cl (stereo not drawn) [Leu-MNA] | − |  |
| CC(C)C[C@H](N)C(=O)Nc1ccc2ccccc2c1 [Leu-βNA] | − |  |
| C[C@H](NC(=O)[C@@H](N)CCCCN)C(=O)Nc1ccc2ccccc2c1 [Lys-Ala-βNA] (H-Lys-Ala-βNA) | − |  |
| NCCCC[C@H](N)C(=O)Nc1ccc2ccccc2c1 [Lys-βNA] | − |  |
| N=C(N)NCCC[C@H](NC(=O)[C@@H](N)Cc1ccccc1)C(=O)Nc1ccc2ccccc2c1 [Phe-Arg-βNA] (H-Phe-Arg-βNA) | − |  |
| COc1cc(NC(=O)[C@@H](N)Cc2ccccc2)cc2ccccc12 [Phe-MNA] | − |  |
| N[C@@H](Cc1ccccc1)C(=O)Nc1ccc2ccccc2c1 [Phe-βNA] | − |  |
| COc1cc(NC(=O)C(CCCN=C(N)N)NC(=O)C2CCCN2)cc2ccccc12 (stereo not drawn) [Pro-Arg-MNA] | − |  |
| O=C(Nc1ccc2ccccc2c1)[C@@H]1CCCN1 [Pro-βNA] | − |  |
| CSCC[C@H](NC(=O)[C@@H](N)CO)C(=O)Nc1ccc2ccccc2c1 [Ser-Met-βNA] (H-Ser-Met-βNA) | − |  |
| N[C@@H](CO)C(=O)N[C@@H](Cc1ccc(O)cc1)C(=O)Nc1ccc2ccccc2c1 [Ser-Tyr-βNA] (H-Ser-Tyr-βNA) | − |  |
| N[C@@H](CO)C(=O)Nc1ccc2ccccc2c1 [Ser-βNA] | − |  |
| N[C@@H](Cc1c[nH]c2ccccc12)C(=O)Nc1ccc2ccccc2c1 [Trp-βNA] | − |  |
| CC(C)[C@H](N)C(=O)Nc1ccc2ccccc2c1 [Val-βNA] | − |  |
| CBZ-Val-Leu-Arg-MNA | + |  |
| Cbz-Arg-Arg-βNA | − |  |
| Pro-MNA | − |  |
